Assay type in all cases: cell-based
In data set [1] the target is T1, human α1H T-type channels (Homo sapiens, UniProt O95180).
T1 construct: expressed in transfected cells; host or cells: HEK 293
Put plainly: T-type calcium channel block, whole cell patch clamp in HEK cells (α1H). As to conditions: HEK cells, patch clamp, mainly non-inactivated protocol; values above 10 μM shown as 10 μM; read-out: T-type Calcium Channel Block α1H IC50. For orientation: In patch-clamp work, channel activity is measured electrically.

Data set [2] has as its target hERG K+ channel (Homo sapiens, UniProt Q12809). In words: hERG K+ Channel Block.
The target in data set [3] is T2, human α1G T-type channels (Homo sapiens, UniProt O43497).
T2 construct: expressed in transfected cells; host or cells: HEK 293
Put plainly: T-type calcium channel block, whole cell patch clamp in HEK cells (α1G). The settings on record: HEK cells, patch clamp, mainly non-inactivated protocol; values above 10 μM shown as 10 μM, below 0.30 μM shown as 0.30 μM; read-out: T-type Calcium Channel Block α1G IC50.

Where two headings read alike, the source gives them in different places.

T2 sequence (O43497 whole entry): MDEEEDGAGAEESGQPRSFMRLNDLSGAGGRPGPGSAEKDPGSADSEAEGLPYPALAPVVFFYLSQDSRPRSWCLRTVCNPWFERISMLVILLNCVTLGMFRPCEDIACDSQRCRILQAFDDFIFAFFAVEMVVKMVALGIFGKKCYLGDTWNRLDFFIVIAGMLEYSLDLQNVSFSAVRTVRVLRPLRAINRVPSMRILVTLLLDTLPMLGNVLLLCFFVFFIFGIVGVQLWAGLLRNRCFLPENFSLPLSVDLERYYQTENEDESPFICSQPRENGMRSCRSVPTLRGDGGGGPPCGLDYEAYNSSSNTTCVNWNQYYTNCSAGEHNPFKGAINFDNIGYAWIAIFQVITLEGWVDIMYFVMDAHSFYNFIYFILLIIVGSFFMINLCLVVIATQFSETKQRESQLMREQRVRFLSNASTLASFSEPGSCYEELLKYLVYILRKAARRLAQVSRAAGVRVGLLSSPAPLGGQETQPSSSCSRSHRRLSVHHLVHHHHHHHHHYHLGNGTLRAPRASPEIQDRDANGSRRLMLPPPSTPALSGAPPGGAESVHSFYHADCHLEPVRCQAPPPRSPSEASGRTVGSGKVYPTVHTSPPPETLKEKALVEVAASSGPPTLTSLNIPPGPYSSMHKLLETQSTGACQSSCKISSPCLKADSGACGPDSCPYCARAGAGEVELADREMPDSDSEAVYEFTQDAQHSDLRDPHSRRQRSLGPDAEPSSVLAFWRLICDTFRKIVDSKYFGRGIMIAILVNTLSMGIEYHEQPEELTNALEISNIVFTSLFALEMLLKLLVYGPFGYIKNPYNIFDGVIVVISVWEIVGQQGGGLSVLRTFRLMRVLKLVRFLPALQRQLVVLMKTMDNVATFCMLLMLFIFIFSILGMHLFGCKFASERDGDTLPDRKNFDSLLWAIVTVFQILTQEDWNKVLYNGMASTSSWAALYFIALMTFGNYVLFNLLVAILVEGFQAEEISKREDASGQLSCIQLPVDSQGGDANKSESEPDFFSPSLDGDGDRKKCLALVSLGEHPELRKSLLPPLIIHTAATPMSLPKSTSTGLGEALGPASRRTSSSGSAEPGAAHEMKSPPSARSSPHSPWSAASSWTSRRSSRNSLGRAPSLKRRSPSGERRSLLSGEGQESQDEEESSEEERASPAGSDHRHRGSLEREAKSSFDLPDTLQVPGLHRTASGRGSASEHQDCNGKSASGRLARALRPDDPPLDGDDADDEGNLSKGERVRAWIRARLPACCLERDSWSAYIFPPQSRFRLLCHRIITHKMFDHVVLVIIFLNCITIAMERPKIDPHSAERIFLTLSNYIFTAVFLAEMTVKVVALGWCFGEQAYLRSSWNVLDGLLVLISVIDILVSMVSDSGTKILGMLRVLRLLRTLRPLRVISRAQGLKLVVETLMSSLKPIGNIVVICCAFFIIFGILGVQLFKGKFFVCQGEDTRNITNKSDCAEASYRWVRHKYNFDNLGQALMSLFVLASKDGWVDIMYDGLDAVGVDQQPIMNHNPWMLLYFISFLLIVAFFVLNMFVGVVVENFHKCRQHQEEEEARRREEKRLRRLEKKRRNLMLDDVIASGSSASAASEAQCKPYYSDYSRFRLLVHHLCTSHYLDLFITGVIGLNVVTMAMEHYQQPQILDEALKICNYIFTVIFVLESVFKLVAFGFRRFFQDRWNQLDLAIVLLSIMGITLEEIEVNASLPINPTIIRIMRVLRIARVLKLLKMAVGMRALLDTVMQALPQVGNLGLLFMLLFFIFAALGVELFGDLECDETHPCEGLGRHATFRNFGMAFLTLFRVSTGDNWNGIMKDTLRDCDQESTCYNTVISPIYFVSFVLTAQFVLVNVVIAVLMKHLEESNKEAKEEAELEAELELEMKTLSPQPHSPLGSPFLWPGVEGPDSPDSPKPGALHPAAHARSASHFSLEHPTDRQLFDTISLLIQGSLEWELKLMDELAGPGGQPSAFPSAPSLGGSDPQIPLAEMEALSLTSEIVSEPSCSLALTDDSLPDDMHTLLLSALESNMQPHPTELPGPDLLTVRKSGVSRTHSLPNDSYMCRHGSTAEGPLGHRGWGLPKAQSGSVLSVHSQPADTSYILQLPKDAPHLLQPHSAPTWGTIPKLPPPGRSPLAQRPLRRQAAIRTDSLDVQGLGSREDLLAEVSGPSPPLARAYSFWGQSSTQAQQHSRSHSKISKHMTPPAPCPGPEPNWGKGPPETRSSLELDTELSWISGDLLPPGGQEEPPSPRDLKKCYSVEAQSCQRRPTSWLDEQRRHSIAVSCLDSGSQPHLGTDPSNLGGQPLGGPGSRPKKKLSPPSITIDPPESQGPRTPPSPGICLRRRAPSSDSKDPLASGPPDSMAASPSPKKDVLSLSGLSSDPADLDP
T1 sequence (O95180 whole entry): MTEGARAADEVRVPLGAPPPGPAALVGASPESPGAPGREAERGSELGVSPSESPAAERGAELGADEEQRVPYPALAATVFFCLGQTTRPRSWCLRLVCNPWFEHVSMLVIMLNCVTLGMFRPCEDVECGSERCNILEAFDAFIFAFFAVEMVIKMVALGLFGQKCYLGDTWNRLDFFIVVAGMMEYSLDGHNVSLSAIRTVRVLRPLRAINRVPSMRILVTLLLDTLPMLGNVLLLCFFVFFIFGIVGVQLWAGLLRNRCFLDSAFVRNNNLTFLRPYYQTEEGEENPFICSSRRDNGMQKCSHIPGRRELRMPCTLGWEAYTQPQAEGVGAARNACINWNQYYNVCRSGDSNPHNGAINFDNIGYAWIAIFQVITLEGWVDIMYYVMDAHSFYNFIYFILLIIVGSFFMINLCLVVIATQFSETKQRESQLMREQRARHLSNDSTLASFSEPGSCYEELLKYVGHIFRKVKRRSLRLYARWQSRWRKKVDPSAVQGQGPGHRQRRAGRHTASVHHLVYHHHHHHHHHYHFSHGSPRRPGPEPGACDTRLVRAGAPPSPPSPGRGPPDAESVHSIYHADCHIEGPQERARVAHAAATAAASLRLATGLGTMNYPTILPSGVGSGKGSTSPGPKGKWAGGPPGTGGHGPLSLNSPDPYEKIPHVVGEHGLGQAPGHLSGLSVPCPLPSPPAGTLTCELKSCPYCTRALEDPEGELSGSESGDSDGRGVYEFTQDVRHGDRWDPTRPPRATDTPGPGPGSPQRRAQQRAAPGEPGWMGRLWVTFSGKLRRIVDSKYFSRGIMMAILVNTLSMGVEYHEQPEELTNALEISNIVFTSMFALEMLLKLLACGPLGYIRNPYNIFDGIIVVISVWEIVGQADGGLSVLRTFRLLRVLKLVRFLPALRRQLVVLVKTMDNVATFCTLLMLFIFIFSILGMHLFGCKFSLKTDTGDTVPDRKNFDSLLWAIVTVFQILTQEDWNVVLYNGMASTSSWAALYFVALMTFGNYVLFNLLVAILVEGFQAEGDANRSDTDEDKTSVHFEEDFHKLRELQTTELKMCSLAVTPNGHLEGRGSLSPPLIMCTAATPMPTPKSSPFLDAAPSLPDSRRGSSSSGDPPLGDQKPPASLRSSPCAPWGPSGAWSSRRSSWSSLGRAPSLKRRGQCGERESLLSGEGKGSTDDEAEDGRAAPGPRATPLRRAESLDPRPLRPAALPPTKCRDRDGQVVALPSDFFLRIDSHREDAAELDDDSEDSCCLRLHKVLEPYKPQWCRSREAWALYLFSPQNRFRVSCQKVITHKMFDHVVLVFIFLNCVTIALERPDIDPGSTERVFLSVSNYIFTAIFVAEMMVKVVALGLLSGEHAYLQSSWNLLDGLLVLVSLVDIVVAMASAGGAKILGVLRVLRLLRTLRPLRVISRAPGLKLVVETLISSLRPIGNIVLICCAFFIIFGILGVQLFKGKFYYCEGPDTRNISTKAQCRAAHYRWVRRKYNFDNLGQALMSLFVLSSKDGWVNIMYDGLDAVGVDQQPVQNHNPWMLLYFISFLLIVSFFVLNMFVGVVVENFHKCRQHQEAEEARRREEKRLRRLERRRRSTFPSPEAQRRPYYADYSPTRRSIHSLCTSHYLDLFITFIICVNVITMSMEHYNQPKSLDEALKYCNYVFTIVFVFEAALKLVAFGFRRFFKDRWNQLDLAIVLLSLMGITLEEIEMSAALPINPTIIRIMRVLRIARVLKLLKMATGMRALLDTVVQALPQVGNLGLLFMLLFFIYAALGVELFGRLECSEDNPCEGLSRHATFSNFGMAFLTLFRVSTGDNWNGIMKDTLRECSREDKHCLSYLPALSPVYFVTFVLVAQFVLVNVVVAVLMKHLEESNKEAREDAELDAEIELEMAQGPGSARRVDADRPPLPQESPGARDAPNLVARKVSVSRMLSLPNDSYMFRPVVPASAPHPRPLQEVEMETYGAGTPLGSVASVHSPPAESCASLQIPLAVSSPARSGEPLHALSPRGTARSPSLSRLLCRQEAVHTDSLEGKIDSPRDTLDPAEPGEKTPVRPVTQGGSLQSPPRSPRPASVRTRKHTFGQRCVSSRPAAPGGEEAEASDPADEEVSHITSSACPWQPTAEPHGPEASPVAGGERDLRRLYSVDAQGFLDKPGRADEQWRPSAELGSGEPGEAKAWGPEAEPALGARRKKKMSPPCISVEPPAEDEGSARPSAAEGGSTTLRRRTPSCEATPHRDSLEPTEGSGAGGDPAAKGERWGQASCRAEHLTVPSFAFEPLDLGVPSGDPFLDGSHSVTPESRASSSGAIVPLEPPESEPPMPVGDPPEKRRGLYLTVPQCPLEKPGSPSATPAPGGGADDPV

`O=C(CN1CCC(CNC(=O)c2cc(F)cc(Cl)c2)CC1)NC1CCCC1` [Compound 531, 3-chloro-N-((1-(2-(cyclopentylamino)-2-oxoethyl)piperidin-4-yl)methyl)-5-fluorobenzamide]: the IC50 in data set [1] was 80 nM; in data set [2], 2400 nM; in data set [3], < 300 nM.
On to `CC(C)NC(=O)CN1CCC(CNC(=O)c2cc(C(F)(F)F)cc(C(F)(F)F)c2)CC1` [Compound 344, N-((1-(2-(isopropylamino)-2-oxoethyl)piperidin-4-yl)methyl)-3,5-bis(trifluoromethyl)benzamide], for which the IC50 in data set [1] is 120 nM; in data set [2] it was 9100 nM; in data set [3] it was < 300 nM.
In the case of `COc1cc(F)cc(C(=O)NCC2CCN(CC(=O)N(C)C(C)(C)C(F)(F)F)CC2)c1` [Compound 581, 3-fluoro-5-methoxy-N-((1-(2-(methyl(1,1,1-trifluoro-2-methyl-propan-2-yl)amino)-2-oxoethyl)piperidin-4-yl)methyl)benzamide], the IC50 in data set [1] was 210 nM; in data set [2], 11000 nM; in data set [3], < 300 nM.
With `COc1cc(F)cc(C(=O)NCC2CCN(CCNS(=O)(=O)C(C)(C)C)CC2)c1` [Compound 577, N-((1-(2-(1,1-dimethylethylsulfonamido)ethyl)piperidin-4-yl)methyl)-3-fluoro-5-methoxybenzamide], the IC50 is 450 nM in data set [1], ≥ 17000 nM in data set [2] (human) and < 300 nM in data set [3].
As for `O=C(NCC1CCN(CCNC(=O)C2(C(F)(F)F)CC2)CC1)c1cc(F)cc(C(F)(F)F)c1` [Compound 343, 3-fluoro-5-(trifluoromethyl)-N-((1-(2-(1-(trifluoromethyl)cyclopropanecarbox-amido)ethyl)piperidin-4-yl)methyl) benzamide], the IC50 in data set [1] turned out to be 130 nM; in data set [2], 6200 nM; in data set [3], 330 nM.
In the case of `CC(C)CS(=O)(=O)NCCN1CCC(CNC(=O)c2cc(F)cc(C(F)(F)F)c2)CC1` [Compound 26, 3-fluoro-N-((1-(2-(2-methylpropylsulfonamido)ethyl)piperidin-4-yl)methyl)-5-(trifluoromethyl)benzamide], the figures for the IC50 in data set [1] and in data set [2] were 200 nM and 2600 nM, respectively.
Consider `CC(C)(C(=O)NCCN1CCC(CNC(=O)c2cccc(Br)c2)CC1)C(F)(F)F` [Compound 493, 3-bromo-N-((1-(2-(3,3,3-trifluoro-2,2-dimethylpropanamido)ethyl)piperidin-4-yl)methyl)benzamide], for which the IC50 in data set [1] was 60 nM; in data set [2], 2500 nM; in data set [3], < 300 nM.
On the same counts, the results for `CC(C)(C(=O)NCCN1CCC(CNC(=O)c2cc(F)cc(Cl)c2)CC1)C(F)(F)F` [Compound 495, 3-chloro-5-fluoro-N-((1-(2-(3,3,3-trifluoro-2,2-dimethylpropanamido)ethyl)piperidin-4-yl)methyl)benzamide] are 90 nM, 4100 nM and < 300 nM.
Consider `O=C(NCC1CCN(CCNC(=O)C2(C(F)(F)F)CCC2)CC1)c1cc(F)cc(Cl)c1` [Compound 511, 3-chloro-5-fluoro-N-((1-(2-(1-(trifluoromethyl)cyclobutanecarboxamido)ethyl)piperidin-4-yl)methyl)benzamide], for which the IC50 was 90 nM in data set [1], 2900 nM in data set [2] and < 300 nM in data set [3].
Turning to `CN(C(=O)CN1CCC(CNC(=O)c2cc(F)cc(Cl)c2)CC1)C(C)(C)C` [Compound 544, N-((1-(2-(tert-butyl(methyl)amino)-2-oxoethyl)piperidin-4-yl)methyl)-3-chloro-5-fluorobenzamide], the IC50 in data set [1] was 170 nM; in data set [2], 6000 nM; in data set [3], < 300 nM.
The matching figures for `CC(C)(C)C(O)CN1CCC(CC(=O)Nc2cc(C(F)(F)F)cc(C(F)(F)F)c2)CC1` (stereo not shown) [Compound 153, N-(3,5-bis(trifluoromethyl)phenyl)-2-(1-(2-hydroxy-3,3-dimethylbutyl)piperidin-4-yl)acetamide]: 70 nM, 2800 nM and < 300 nM.
For the compound `COc1cc(F)cc(C(=O)NCC2CCN(CC(=O)NC(C)(C)C)CC2)c1` [Compound 366, N-((1-(2-(tert-butylamino)-2-oxoethyl)piperidin-4-yl)methyl)-3-fluoro-5-methoybenzamide], the IC50 was 120 nM in data set [1], ≥ 8300 nM in data set [2] (human) and < 300 nM in data set [3].
With `CC(C)S(=O)(=O)NCCN1CCC(CC(=O)Nc2cc(Br)cc(C(F)(F)F)c2)CC1` [Compound 391, N-(3-bromo-5-(trifluoromethyl)phenyl)-2-(1-(2-(1-methylethylsulfonamido)ethyl)piperidin-4-yl)acetamide], the IC50 in data set [2] was 630 nM; in data set [3], < 300 nM.
`O=C(NCC1CCN(CCNC(=O)C2CC2)CC1)c1cc(C(F)(F)F)cc(C(F)(F)F)c1` [Compound 59, N-((1-(2-(cyclopropanecarboxamido)ethyl)piperidin-4-yl)methyl)-3,5-bis(trifluoromethyl)benzamide]: the IC50 was found to be 1660 nM in data set [1] and 2800 nM in data set [2].
Consider `CC(C)CS(=O)(=O)NCCN1CCC(CC(=O)Nc2cc(F)cc(C(F)(F)F)c2)CC1` [Compound 427, N-(3-fluoro-5-(trifluoromethyl)phenyl)-2-(1-(2-(2-methylpropylsulfonamido)ethyl)piperidin-4-yl)acetamide], for which the values for the IC50 in data set [2] and in data set [3] were 450 nM and < 300 nM, respectively.
Consider `O=C(NCC1CCN(CCNS(=O)(=O)C(F)(F)F)CC1)c1cc(Br)cc(C(F)(F)F)c1` [Compound 115, 3-bromo-5-(trifluoromethyl)-N-((1-(2-(trifluoromethylsulfonamido)ethyl)piperidin-4-yl)methyl)benzamide], for which the results for the IC50 in data set [1] and in data set [2] (human) were 230 nM and ≥ 8300 nM, respectively.
On the same counts, the results for `CN(C(=O)CN1CCC(CNC(=O)c2cc(F)cc(C(F)(F)F)c2)CC1)C1(C)CCC1` [Compound 594, 3-fluoro-N-((1-(2-(methyl(1-methylcyclobutyl)amino)-2-oxoethyl)piperidin-4-yl)methyl)-5-(trifluoromethyl)benzamide] are 160 nM and ≥ 17000 nM.
Consider `CC(C)(C)C(=O)NCCN1CCC(CNC(=O)c2cc(Br)cc(C(F)(F)F)c2)CC1` [Compound 302, 3-bromo-N-((1-(2-pivalamidoethyl)piperidin-4-yl)methyl)-5-(trifluoromethyl)benzamide], for which the figures for the IC50 in data set [1] and in data set [3] were 300 nM and < 300 nM, respectively.
With `CN(C(=O)CN1CCC(CNC(=O)c2cc(F)cc(Cl)c2)CC1)C(C)(C)C(F)(F)F` [Compound 579, 3-chloro-5-fluoro-N-((1-(2-(methyl (1,1,1-trifluoro-2-methylpropan-2-yl)amino)-2-oxoethyl)piperidin-4-yl)methyl)benzamide], the IC50 is 50 nM in data set [1] and < 300 nM in data set [3].
On to `CCC1CCCN1CC(=O)N1CCC(CNC(=O)c2cc(C(F)(F)F)cc(C(F)(F)F)c2)CC1` (stereo not shown) [Compound 253, N-((1-(2-(2-ethylpyrrolidin-1-yl)acetyl)piperidin-4-yl)methyl)-3,5-bis(trifluoromethyl)benzamide], for which the IC50 in data set [1] was 1310 nM; in data set [3], 480 nM.
As for `COc1cc(OC)cc(C(=O)NCC2CCN(CCNC(=O)C(C)(C)C(F)(F)F)CC2)c1` [Compound 491, 3,5-dimethoxy-N-((1-(2-(3,3,3-trifluoro-2,2-dimethylpropanamido)ethyl)piperidin-4-yl)methyl)benzamide], the IC50 in data set [1] is 190 nM; in data set [3] it was < 300 nM.
Consider `CC(C)(C)C(=O)NCCN1CCC(CNC(=O)c2cccc(Cl)c2)CC1` [Compound 299, 3-chloro-N-((1-(2-pivalamidoethyl)piperidin-4-yl)methyl)benzamide], for which the IC50 is 1980 nM in data set [1] and 1210 nM in data set [3].
The matching figures for `CC(C)(F)C(=O)NCCN1CCC(CNC(=O)c2cc(C(F)(F)F)cc(C(F)(F)F)c2)CC1` [Compound 335, N-((1-(2-(2-fluoro-2-methylpropanamido)ethyl)piperidin-4-yl)methyl)-3,5-bis(trifluoromethyl) benzamide]: 310 nM and 330 nM.
The matching figures for `CC(C)(C)C(=O)NCCN1CCC(CNC(=O)c2cc(C(F)(F)F)ccn2)CC1` [Compound 310, N-((1-(2-pivalamidoethyl)piperidin-4-yl)methyl)-4-(trifluoromethyl) picolinamide]: > 10000 nM and > 10000 nM.
Turning to `CC(C)S(=O)(=O)NCCN1CCC(CNC(=O)c2cc(Br)cc(Br)c2)CC1` [Compound 319, 3,5-dibromo-N-((1-(2-(1-methylethylsulfonamido)ethyl)piperidin-4-yl)methyl)benzamide], the figures for the IC50 in data set [1] and in data set [3] were 150 nM and < 300 nM, respectively.
Turning to `O=C(NCC1CCN(C(=O)CNC2CC2)CC1)c1cc(C(F)(F)F)cc(C(F)(F)F)c1` [Compound 257, N-((1-(2-(cyclopropylamino)acetyl)piperidin-4-yl)methyl)-3,5-bis(trifluoromethyl)benzamide], the IC50 in data set [1] was found to be 2420 nM; in data set [3] it was 3210 nM.
On to `COc1cc(F)cc(C(=O)NCC2CCN(CC(=O)NCC(C)(C)F)CC2)c1` [Compound 557, 3-fluoro-N-((1-(2-(2-fluoro-2-methylpropylamino)-2-oxoethyl)piperidin-4-yl)methyl)-5-methoxy-benzamide], for which the IC50 in data set [1] amounted to 1310 nM; in data set [3], 3580 nM.
Take `O=C(NCC1CCN(CCNS(=O)(=O)C(F)(F)F)CC1)c1ccc(OC(F)(F)F)cc1` [Compound 389, 4-(trifluoromethoxy)-N-((1-(2-(trifluoromethylsulfonamido)ethyl)piperidin-4-yl)methyl)benzamide]: the IC50 in data set [1] and in data set [3] was > 10000 nM in each case.

The term IC50 denotes the concentration that inhibits the measured activity by half.

Values taken from patent US8569344B2, “N-piperidinyl acetamide derivatives as calcium channel blockers” (Zalicus Pharmaceuticals Ltd., priority 2008, dated 2013).
